Here are results for two molecules from US6579983B1, “5-cyano-2-aminopyrimidine derivatives” (Celltech R&D Limited, priority 1999, dated 2003).

The structures appear in SMILES notation.

For the molecule `COc1cc(Nc2ncc(C#N)c(-c3ccc(C(C)(C)N)cc3)n2)cc(OC)c1OC` [Example 9, 4-[4-(1-Amino-1-methylethyl)phenyl]-5-cyano-N-(3,4,5-trimethoxyphenyl)pyrimidine-2-amine], the melting point (in general, the temperature, or range, at which the solid turns liquid) lay in the range of 167 to 168 °C.

As for `CC(C)(N)c1ccc(-c2nc(Nc3ccc4[nH]ncc4c3)ncc2C#N)cc1` [Example 8, 4-[4-(1-Amino-1-methylethyl)phenyl]-5-cyano-N-(indazol-5-yl)pyrimidine-2-amine], the melting point was 267 to 271 °C (dec.).
